Laboratory results: PubChem BioAssay AID248 (DTP/NCI, 2004)
Several values for one entry are separate records, joined by “and”; a condition that tells them apart may be missing. Equal entries are not always repeated. Toxic doses and inconclusive results are not listed.

Tested on: L1210 leukemia ip in BDF1 mice, survival T/C
Assay: NCI In Vivo Anticancer Drug Screen. Data for tumor model L1210 Leukemia (intraperitoneal) in B6D2F1 (BDF1) mice
Details: higher = longer survival
How it was run: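 Antitumor effect is assessed in tumor-bearing animals. Survival in the compound arm is compared with a vehicle-dosed control arm and expressed as their quotient.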

[1] = endpoint: mean survival time, dose: 100.0 mg/kg/injection, schedule: Q01DX001 (ip), vehicle: Klucel (hydroxypropylcellulose) (HPC)
[2] = endpoint: mean survival time, dose: 200.0 mg/kg/injection, schedule: Q01DX001 (ip), vehicle: Klucel (hydroxypropylcellulose) (HPC)
[3] = endpoint: mean survival time, dose: 400.0 mg/kg/injection, schedule: Q01DX001 (ip), vehicle: Klucel (hydroxypropylcellulose) (HPC)
[4] = endpoint: mean survival time, dose: 100.0 mg/kg/injection, schedule: Q01DX001 (ip), vehicle: saline
[5] = endpoint: mean survival time, dose: 200.0 mg/kg/injection, schedule: Q01DX001 (ip), vehicle: saline

CN(C)C(=S)Oc1ccc(C(C)(C)C)cc1
T/C [1]: 96 % of control
T/C [2]: 98 % of control
T/C [3]: 90 % of control

O=[N+]([O-])c1ccc(Oc2cccc(C(F)(F)F)c2)c(Cl)c1
T/C [1]: 94 % of control
T/C [2]: 97 % of control
T/C [3]: 95 % of control

CNC(=S)c1ccc(Cl)cc1
T/C (endpoint: mean survival time, dose: 12.5 mg/kg/injection, schedule: Q01DX009 (ip), vehicle: Klucel (hydroxypropylcellulose) (HPC)): 96 % of control
T/C (endpoint: mean survival time, dose: 25.0 mg/kg/injection, schedule: Q01DX009 (ip), vehicle: Klucel (hydroxypropylcellulose) (HPC)): 94 % of control

CC(=O)ON1C(=O)c2ccccc2C1=O
T/C (endpoint: mean survival time, dose: 50.0 mg/kg/injection, schedule: Q01DX001 (ip), vehicle: saline): 102 % of control
T/C [4]: 100 % of control
T/C [5]: 102 % of control

O=C1C=CN(C2OC(CO)C(O)C2O)C(=O)C1 (configuration not stated)
T/C (endpoint: mean survival time, dose: 0.75 mg/kg/injection, schedule: Q01DX009 (ip), vehicle: saline): 117 % of control
T/C (endpoint: mean survival time, dose: 1.5 mg/kg/injection, schedule: Q01DX009 (ip), vehicle: saline): 117 % of control
T/C (endpoint: mean survival time, dose: 4.8 mg/kg/injection, schedule: Q01DX009 (ip), vehicle: saline): 120 % of control
T/C (endpoint: mean survival time, dose: 7.8 mg/kg/injection, schedule: Q01DX005 (ip), vehicle: other): 107 % of control
T/C (endpoint: mean survival time, dose: 15.75 mg/kg/injection, schedule: Q01DX005 (ip), vehicle: other): 116 % of control
T/C (endpoint: mean survival time, dose: 22.0 mg/kg/injection, schedule: Q01DX009 (ip), vehicle: saline): 124 % of control
T/C (endpoint: mean survival time, dose: 31.25 mg/kg/injection, schedule: Q01DX005 (ip), vehicle: other): 123 % of control
T/C (endpoint: mean survival time, dose: 62.5 mg/kg/injection, schedule: Q01DX005 (ip), vehicle: other): 124 % of control
T/C [4]: 105 % of control
T/C (endpoint: mean survival time, dose: 100.0 mg/kg/injection, schedule: Q04DX003 (ip), vehicle: saline): 108 % of control
T/C (endpoint: mean survival time, dose: 112.0 mg/kg/injection, schedule: Q03HX024 (ip), vehicle: saline): 176 % of control
T/C [5]: 114 % of control
T/C (endpoint: mean survival time, dose: 200.0 mg/kg/injection, schedule: Q04DX003 (ip), vehicle: saline): 119 % of control
T/C (endpoint: mean survival time, dose: 400.0 mg/kg/injection, schedule: Q01DX001 (ip), vehicle: saline): 105 % of control
T/C (endpoint: mean survival time, dose: 400.0 mg/kg/injection, schedule: Q01DX009 (ip), vehicle: saline): 115 % of control
T/C (endpoint: mean survival time, dose: 400.0 mg/kg/injection, schedule: Q04DX003 (ip), vehicle: saline): 116 % of control
T/C (endpoint: median survival time, dose: 6.25 mg/kg/injection, schedule: Q01DX009 (ip), vehicle: saline): 122 % of control
T/C (endpoint: median survival time, dose: 12.5 mg/kg/injection, schedule: Q01DX009 (ip), vehicle: saline): 122 % of control
T/C (endpoint: median survival time, dose: 16.0 mg/kg/injection, schedule: Q03HX008 (ip), vehicle: saline): 105 % of control
T/C (endpoint: median survival time, dose: 16.0 mg/kg/injection, schedule: Q03HX016 (ip), vehicle: saline): 103 % of control
T/C (endpoint: median survival time, dose: 26.0 mg/kg/injection, schedule: Q03HX024 (ip), vehicle: saline): 150 % of control
T/C (endpoint: median survival time, dose: 32.0 mg/kg/injection, schedule: Q01DX009 (sc), vehicle: saline): 118 % of control
T/C (endpoint: median survival time, dose: 32.0 mg/kg/injection, schedule: Q03HX008 (ip), vehicle: saline): 106 % of control
T/C (endpoint: median survival time, dose: 32.0 mg/kg/injection, schedule: Q03HX016 (ip), vehicle: saline): 101 % of control
T/C (endpoint: median survival time, dose: 64.0 mg/kg/injection, schedule: Q01DX009 (sc), vehicle: saline): 123 % of control
T/C (endpoint: median survival time, dose: 64.0 mg/kg/injection, schedule: Q03HX008 (ip), vehicle: saline): 103 % of control
T/C (endpoint: median survival time, dose: 64.0 mg/kg/injection, schedule: Q03HX016 (ip), vehicle: saline): 103 % of control
T/C (endpoint: median survival time, dose: 64.0 mg/kg/injection, schedule: Q04DX003 (ip), vehicle: saline): 103 % of control
T/C (endpoint: median survival time, dose: 74.0 mg/kg/injection, schedule: Q01DX009 (oral), vehicle: saline): 116 % of control
T/C (endpoint: median survival time, dose: 110.0 mg/kg/injection, schedule: Q01DX009 (oral), vehicle: saline): 100 % of control
T/C (endpoint: median survival time, dose: 128.0 mg/kg/injection, schedule: Q01DX001 (ip), vehicle: saline): 98 % of control
T/C (endpoint: median survival time, dose: 128.0 mg/kg/injection, schedule: Q01DX009 (ip), vehicle: saline): 156 % of control
T/C (endpoint: median survival time, dose: 128.0 mg/kg/injection, schedule: Q01DX009 (oral), vehicle: saline): 111 % of control
T/C (endpoint: median survival time, dose: 128.0 mg/kg/injection, schedule: Q03HX008 (ip), vehicle: saline): 108 % of control
T/C (endpoint: median survival time, dose: 128.0 mg/kg/injection, schedule: Q03HX016 (ip), vehicle: saline): 110 % of control
T/C (endpoint: median survival time, dose: 128.0 mg/kg/injection, schedule: Q04DX003 (ip), vehicle: saline): 104 % of control
T/C (endpoint: median survival time, dose: 128.0 mg/kg/injection, schedule: Q04DX003 (oral), vehicle: saline): 104 % of control and 110 % of control
T/C (endpoint: median survival time, dose: 128.0 mg/kg/injection, schedule: Q04DX003 (sc), vehicle: saline): 112 % of control
T/C (endpoint: median survival time, dose: 128.0 mg/kg/injection, schedule: Q08DX002 (ip), vehicle: saline): 94 % of control
T/C (endpoint: median survival time, dose: 164.0 mg/kg/injection, schedule: Q01DX009 (oral), vehicle: saline): 111 % of control
T/C (endpoint: median survival time, dose: 170.0 mg/kg/injection, schedule: Q04DX003 (ip), vehicle: saline): 111 % of control
T/C (endpoint: median survival time, dose: 248.0 mg/kg/injection, schedule: Q01DX009 (oral), vehicle: saline): 100 % of control
T/C (endpoint: median survival time, dose: 256.0 mg/kg/injection, schedule: Q01DX001 (ip), vehicle: saline): 105 % of control
T/C (endpoint: median survival time, dose: 256.0 mg/kg/injection, schedule: Q01DX009 (ip), vehicle: saline): 180 % of control
T/C (endpoint: median survival time, dose: 256.0 mg/kg/injection, schedule: Q01DX009 (oral), vehicle: saline): 107 % of control and 110 % of control
T/C (endpoint: median survival time, dose: 256.0 mg/kg/injection, schedule: Q03HX008 (ip), vehicle: saline): 116 % of control
T/C (endpoint: median survival time, dose: 256.0 mg/kg/injection, schedule: Q03HX016 (ip), vehicle: saline): 122 % of control
T/C (endpoint: median survival time, dose: 256.0 mg/kg/injection, schedule: Q04DX003 (ip), vehicle: saline): 112 % of control
T/C (endpoint: median survival time, dose: 256.0 mg/kg/injection, schedule: Q04DX003 (oral), vehicle: saline): 117 % of control and 123 % of control
T/C (endpoint: median survival time, dose: 256.0 mg/kg/injection, schedule: Q04DX003 (sc), vehicle: saline): 120 % of control
T/C (endpoint: median survival time, dose: 256.0 mg/kg/injection, schedule: Q08DX002 (ip), vehicle: saline): 97 % of control
T/C (endpoint: median survival time, dose: 260.0 mg/kg/injection, schedule: Q04DX003 (ip), vehicle: saline): 111 % of control
T/C (endpoint: median survival time, dose: 400.0 mg/kg/injection, schedule: Q01DX009 (ip), vehicle: saline): 155 % of control
T/C (endpoint: median survival time, dose: 512.0 mg/kg/injection, schedule: Q01DX001 (ip), vehicle: saline): 100 % of control
T/C (endpoint: median survival time, dose: 512.0 mg/kg/injection, schedule: Q01DX009 (oral), vehicle: saline): 97 % of control and 100 % of control
T/C (endpoint: median survival time, dose: 512.0 mg/kg/injection, schedule: Q04DX003 (ip), vehicle: saline): 122 % of control
T/C (endpoint: median survival time, dose: 512.0 mg/kg/injection, schedule: Q04DX003 (oral), vehicle: saline): 105 % of control
T/C (endpoint: median survival time, dose: 512.0 mg/kg/injection, schedule: Q04DX003 (sc), vehicle: saline): 119 % of control
T/C (endpoint: median survival time, dose: 512.0 mg/kg/injection, schedule: Q08DX002 (ip), vehicle: saline): 95 % of control
T/C (endpoint: median survival time, dose: 580.0 mg/kg/injection, schedule: Q04DX003 (ip), vehicle: saline): 111 % of control
T/C (endpoint: median survival time, dose: 600.0 mg/kg/injection, schedule: Q01DX009 (ip), vehicle: saline): 110 % of control
T/C (endpoint: median survival time, dose: 1024.0 mg/kg/injection, schedule: Q01DX001 (ip), vehicle: saline): 101 % of control
T/C (endpoint: median survival time, dose: 1024.0 mg/kg/injection, schedule: Q01DX009 (oral), vehicle: saline): 95 % of control
T/C (endpoint: median survival time, dose: 1024.0 mg/kg/injection, schedule: Q08DX002 (ip), vehicle: saline): 106 % of control
T/C (endpoint: median survival time, dose: 2048.0 mg/kg/injection, schedule: Q01DX001 (ip), vehicle: saline): 111 % of control
T/C (endpoint: median survival time, dose: 2048.0 mg/kg/injection, schedule: Q08DX002 (ip), vehicle: saline): 119 % of control
